In US8624034B2, “Fluoro-pyridinone derivatives useful as antibacterial agents” (Pfizer Inc., priority 2011, dated 2014):
Values after ≈ are worked out from the molar mass of the structure shown.

Experiments:
[1] = test system: Escherichia coli EC-1: VOGEL, mouse virulent; assay: MIC determination, EC-1; type: cell-based; conditions: Escherichia coli, read-out: EC-1 (MIC), Table 3, lower of duplicate values
Summary of the method: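 MIC against mouse-virulent E. coli EC-1 (VOGEL) was determined by CLSI M7-A8 broth dilution with 2-fold drug increments and overnight incubation. The MIC is the lowest concentration with no visible growth versus drug-free control. Tests were run in duplicate and the lower value reported if within 2-fold, with QC organisms and reference drugs in each run.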

PA:UC12120 = assay: MIC determination, PA:UC12120 (Table 3); type: cell-based, Pseudomonas aeruginosa; conditions: Pseudomonas aeruginosa, UC12120, Table 3, lower of duplicate values
Summary of the method: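 CLSI broth dilution MIC with 2-fold concentration steps, overnight incubation; MIC is the lowest concentration visibly inhibiting growth versus drug-free control. Run in duplicate, lower value reported when within 2-fold; control organisms and reference compounds required within defined ranges.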

[2] = test system: Acinetobacter baumannii/haemolyticus, multidrug-resistant clinical isolate (AB-3167); assay: MIC determination, AB-3167; type: cell-based; conditions: Table 3, lower of duplicate values
Summary of the method: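 Broth dilution MIC per CLSI M7-A8, 2-fold drug series, overnight incubation, lowest concentration visibly inhibiting growth against drug-free control. Run in duplicate, lower value reported; duplicates differing >2-fold repeated; QC strains and reference compounds required in range.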

[3] = target: T1, Pseudomonas aeruginosa LpxC enzyme (Pseudomonas aeruginosa, UniProt P47205); assay: IC50 assay, LpxC enzyme from P. aeruginosa (PA LpxC enzyme IC50); type: biochemical; conditions: Table 3; LpxC enzyme 0.1 nM, 25° C., 1 hour; read-out: PA:IC50
T1 construct: made in house; host or cells: E. coli
T1 sequence (P47205 1-303): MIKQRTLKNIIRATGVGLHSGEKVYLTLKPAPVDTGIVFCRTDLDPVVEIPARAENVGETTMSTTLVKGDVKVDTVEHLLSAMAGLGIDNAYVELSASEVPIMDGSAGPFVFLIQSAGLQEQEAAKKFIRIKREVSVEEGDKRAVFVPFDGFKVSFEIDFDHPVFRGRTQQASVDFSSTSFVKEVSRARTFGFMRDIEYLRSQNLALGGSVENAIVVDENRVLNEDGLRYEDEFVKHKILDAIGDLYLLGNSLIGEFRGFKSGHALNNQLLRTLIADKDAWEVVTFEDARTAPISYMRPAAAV
Summary of the method: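 The LpxC reaction ran 1 hour and was stopped with HCl. Substrate-to-product conversion was measured by RapidFire mass spectrometry, and IC50 values were calculated from percent conversion relative to a no-enzyme control.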

Compound | MIC [1] [µg/mL] | MIC (PA:UC12120) [µg/mL] | MIC [2] [µg/mL] | IC50 [3] [nM]
COc1cccc(-c2cc(=O)n(CCC(C)(C(=O)NO)S(C)(=O)=O)cc2F)c1 (stereo not shown) [Example 100, 4-[5-fluoro-4-(3-methoxyphenyl)-2-oxopyridin-1(2H)-yl]-N-hydroxy-2-methyl-2-(methylsulfonyl)butanamide] | 4 (≈ 9.7 µM) | 2 (≈ 4.85 µM) | > 64 | 2.5
COc1cc(C#N)ccc1-c1cc(=O)n(CCC(C)(C(=O)NO)S(C)(=O)=O)cc1F (stereo not shown) [Example 101, 4-[4-(4-cyano-2-methoxyphenyl)-5-fluoro-2-oxopyridin-1(2H)-yl]-N-hydroxy-2-methyl-2-(methylsulfonyl)butanamide] | 64 (≈ 146 µM) | 8 (≈ 18.3 µM) | > 64 | 5.2
CC(CCn1cc(F)c(-c2ccc(Cl)c(C#N)c2)cc1=O)(C(=O)NO)S(C)(=O)=O (stereo not shown) [Example 102, 4-[4-(4-chloro-3-cyanophenyl)-5-fluoro-2-oxopyridin-1(2H)-yl]-N-hydroxy-2-methyl-2-(methylsulfonyl)butanamide] | 4 (≈ 9.05 µM) | 4 (≈ 9.05 µM) | > 64 | 2.1
CC(CCn1cc(F)c(-c2ccccc2F)cc1=O)(C(=O)NO)S(C)(=O)=O (stereo not shown) [Example 103, 4-[5-fluoro-4-(2-fluorophenyl)-2-oxopyridin-1(2H)-yl]-N-hydroxy-2-methyl-2-(methylsulfonyl)butanamide] | 4 (≈ 9.99 µM) | 0.5 (≈ 1.25 µM) | > 64 | 1.4
CC(C)Oc1ncccc1-c1cc(=O)n(CCC(C)(C(=O)NO)S(C)(=O)=O)cc1F (stereo not shown) [Example 104, 4-(5′-fluoro-2-isopropoxy-2′-oxo-3,4′-bipyridin-1′(2′H)-yl)-N-hydroxy-2-methyl-2-(methylsulfonyl)butanamide] | 8 (≈ 18.1 µM) | 32 (≈ 72.5 µM) | 32 (≈ 72.5 µM) | > 100
CC(CCn1cc(F)c(-c2cnc(N3CCCC3)nc2)cc1=O)(C(=O)NO)S(C)(=O)=O (stereo not shown) [Example 106, 4-[5-fluoro-2-oxo-4-(2-pyrrolidin-1-ylpyrimidin-5-yl)pyridin-1(2H)-yl]-N-hydroxy-2-methyl-2-(methylsulfonyl)butanamide] | 32 (≈ 70.6 µM) | 64 (≈ 141 µM) | > 64 | 56.8
CC(CCn1cc(F)c(-c2ccc(Cl)cc2)cc1=O)(C(=O)NO)S(C)(=O)=O (stereo not shown) [Example 107, 4-[4-(4-chlorophenyl)-5-fluoro-2-oxopyridin-1(2H)-yl]-N-hydroxy-2-methyl-2-(methylsulfonyl)butanamide] | 1 (≈ 2.4 µM) | 0.25 (≈ 0.6 µM) | > 64 | 1
CC(CCn1cc(F)c(-c2ccc3c(c2)CNC3=O)cc1=O)(C(=O)NO)S(C)(=O)=O (stereo not shown) [Example 108, 4-[5-fluoro-2-oxo-4-(1-oxo-2,3-dihydro-1H-isoindol-5-yl)pyridin-1(2H)-yl]-N-hydroxy-2-methyl-2-(methylsulfonyl)butanamide] | > 64 | > 64 | > 64 | 7.2
CC(CCn1cc(F)c(-c2ccc(Cl)c(O)c2)cc1=O)(C(=O)NO)S(C)(=O)=O (stereo not shown) [Example 109, 4-[4-(4-chloro-3-hydroxyphenyl)-5-fluoro-2-oxopyridin-1(2H)-yl]-N-hydroxy-2-methyl-2-(methylsulfonyl)butanamide] | 32 (≈ 73.9 µM) | 32 (≈ 73.9 µM) | > 64 | 7.3
COCc1ccccc1-c1cc(=O)n(CCC(C)(C(=O)NO)S(C)(=O)=O)cc1F (stereo not shown) [Example 110, 4-{5-fluoro-4-[2-(methoxymethyl)phenyl]-2-oxopyridin-1(2H)-yl}-N-hydroxy-2-methyl-2-(methylsulfonyl)butanamide] | > 64 | > 64 | > 64 | > 100
COc1cc(C)cc(-c2cc(=O)n(CCC(C)(C(=O)NO)S(C)(=O)=O)cc2F)c1F (stereo not shown) [Example 111, 4-[5-fluoro-4-(2-fluoro-3-methoxy-5-methylphenyl)-2-oxopyridin-1(2H)-yl]-N-hydroxy-2-methyl-2-(methylsulfonyl)butanamide] | 4 (≈ 9 µM) | 4 (≈ 9 µM) | > 64 | 3
CCOc1cccc(-c2cc(=O)n(CCC(C)(C(=O)NO)S(C)(=O)=O)cc2F)c1 (stereo not shown) [Example 112, 4-[4-(3-ethoxyphenyl)-5-fluoro-2-oxopyridin-1(2H)-yl]-N-hydroxy-2-methyl-2-(methylsulfonyl)butanamide] | 2 (≈ 4.69 µM) | 4 (≈ 9.38 µM) | > 64 | 3.1
CC(CCn1cc(F)c(-c2ccc(C(F)(F)F)nc2)cc1=O)(C(=O)NO)S(C)(=O)=O (stereo not shown) [Example 113, 4-[5′-fluoro-2′-oxo-6-(trifluoromethyl)-3,4′-bipyridin-1′(2′H)-yl]-N-hydroxy-2-methyl-2-(methylsulfonyl)butanamide] | > 64 | 32 (≈ 70.9 µM) | > 64 | 29.6
Cc1cc(-c2cc(=O)n(CCC(C)(C(=O)NO)S(C)(=O)=O)cc2F)ccc1C#N (stereo not shown) [Example 114, 4-[4-(4-cyano-3-methylphenyl)-5-fluoro-2-oxopyridin-1(2H)-yl]-N-hydroxy-2-methyl-2-(methylsulfonyl)butanamide] | 4 (≈ 9.49 µM) | 2 (≈ 4.75 µM) | > 64 | 1.3
CN(C)c1ncc(-c2cc(=O)n(CCC(C)(C(=O)NO)S(C)(=O)=O)cc2F)cn1 (stereo not shown) [Example 115, 4-{4-[2-(dimethylamino)pyrimidin-5-yl]-5-fluoro-2-oxopyridin-1(2H)-yl}-N-hydroxy-2-methyl-2-(methylsulfonyl)butanamide] | 32 (≈ 74.9 µM) | 32 (≈ 74.9 µM) | > 64 | 74.1
CC(CCn1cc(F)c(-c2cccc(F)c2)cc1=O)(C(=O)NO)S(C)(=O)=O (stereo not shown) [Example 116, 4-[5-fluoro-4-(3-fluorophenyl)-2-oxopyridin-1(2H)-yl]-N-hydroxy-2-methyl-2-(methylsulfonyl)butanamide] | 4 (≈ 9.99 µM) | 1 (≈ 2.5 µM) | > 64 | 1
CC(CCn1cc(F)c(-c2cccc(F)c2F)cc1=O)(C(=O)NO)S(C)(=O)=O (stereo not shown) [Example 117, 4-[4-(2,3-difluorophenyl)-5-fluoro-2-oxopyridin-1(2H)-yl]-N-hydroxy-2-methyl-2-(methylsulfonyl)butanamide] | 2 (≈ 4.78 µM) | 0.5 (≈ 1.2 µM) | > 64 | 0.8
COc1cccc(-c2cc(=O)n(CCC(C)(C(=O)NO)S(C)(=O)=O)cc2F)c1F (stereo not shown) [Example 118, 4-[5-fluoro-4-(2-fluoro-3-methoxyphenyl)-2-oxopyridin-1(2H)-yl]-N-hydroxy-2-methyl-2-(methylsulfonyl)butanamide] | 1 (≈ 2.32 µM) | 1 (≈ 2.32 µM) | > 64 | 0.7
COc1cc(C#N)cc(-c2cc(=O)n(CCC(C)(C(=O)NO)S(C)(=O)=O)cc2F)c1 (stereo not shown) [Example 119, 4-[4-(3-cyano-5-methoxyphenyl)-5-fluoro-2-oxopyridin-1(2H)-yl]-N-hydroxy-2-methyl-2-(methylsulfonyl)butanamide] | > 64 | 64 (≈ 146 µM) | > 64 | 50.8
CC(CCn1cc(F)c(-c2ccc3c(c2)CCO3)cc1=O)(C(=O)NO)S(C)(=O)=O (stereo not shown) [Example 120, 4-[4-(2,3-dihydro-1-benzofuran-5-yl)-5-fluoro-2-oxopyridin-1(2H)-yl]-N-hydroxy-2-methyl-2-(methylsulfonyl)butanamide] | 2 (≈ 4.71 µM) | 1 (≈ 2.36 µM) | > 64 | 0.9
CC(CCn1cc(F)c(-c2ccc(C#N)cc2)cc1=O)(C(=O)NO)S(C)(=O)=O (stereo not shown) [Example 124, 4-[4-(4-cyanophenyl)-5-fluoro-2-oxopyridin-1(2H)-yl]-N-hydroxy-2-methyl-2-(methylsulfonyl)butanamide] | 32 (≈ 78.5 µM) | 8 (≈ 19.6 µM) | > 64 | 3.4
COc1ccccc1-c1cc(=O)n(CCC(C)(C(=O)NO)S(C)(=O)=O)cc1F (stereo not shown) [Example 125, 4-[5-fluoro-4-(2-methoxyphenyl)-2-oxopyridin-1(2H)-yl]-N-hydroxy-2-methyl-2-(methylsulfonyl)butanamide] | 64 (≈ 155 µM) | 8 (≈ 19.4 µM) | > 64 | 12.9
